{"source": "patent US11391726B2", "about": "“MoT cells as a therapeutic screening tool for regulatory t-cell activity” (ARIZONA BOARD OF REGENTS ON BEHALF OF ARIZONA STATE …, priority 2018, dated 2022)", "key": {"[1]": {"test_system": "MoT cells", "experiment": "CFSE suppression assay: Mabs pre-incubated with MoT cells, then co-cultured with CD3/28-stimulated CD4+ PBMC", "type": "cell-based, human", "settings": "Mab pre-incubated with MoT cells 30 minutes, CD4+ PBMC:MoT ratio 1:1/2, CFSE flow cytometry (FIGS. 5D, 5F, 5H)", "method": "(§1) Suppression assays. After IRB approval at Arizona State University (protocol #0601000548), peripheral blood was collected from healthy donors. After Ficoll-Paque Plus gradient separation of the buffy coat, CD4+ cells were purified using EasySep Human CD4^+ T Cell Isolation Kit (Catalog #17952 from Stemcell Technologies). Cells were allowed to rest overnight in cIMDM at 37° C. prior to labeling with CFSE (Carboxyfluorescein succinimidyl ester, from Cayman Chemica cat #10009853) dye to track cell divisions. The following day, CD4^+ T cells were counted, stained with CFSE, washed in PBS and then plated in IMDM with 10% FBS at 3×10^5 cells per well in a 48-well plate coated with OKT3 antibody at 5.0 ug/mL for 2 hours at 37° C. then washed twice in PBS before adding soluble co-stimulatory anti-CD28 (eBioscience clone CD28.6) at 5.0 ug/mL final concentration.\nIn some studies MoT and Jurkat cells were labeled with Cell Trace FarRed dye (Thermofisher) to gate MoT and Jurkat cells away from CD4^+ PBMC in flow cytometry analysis. Two-fold serial dilutions of MoT and Jurkat cells were added to CD4^+ PBMC, starting at 1.5×10^5 MoT and Jurkat cells (1:1/2 ratio CD4^+ T cells:tumor cells). Final volume per well was 1 mL. Cells were incubated for 5 days. […]"}, "[2]": {"test_system": "CD4+ PBMC", "experiment": "CFSE proliferation assay: Mabs co-incubated with CD3/28-stimulated CD4+ PBMC without MoT cells", "type": "cell-based, human", "settings": "no MoT cells (FIGS. 5C, 5E, 5G)", "method": "as §1\n(FIG. 5A) Unstimulated PBMC. (FIG. 5B) CD3/28-stimulated CD4^+ PBMC cell division without MoT cells. (FIG. 5C) Anti-GITR, (FIG. 5E) Anti-CCR4 mogamulizumab, and (FIG. 5G) anti-PDL-1 (atezolizumab) co-incubated with PBMCs. (FIG. 5D) Anti-GITR, (FIG. 5F) anti-CCR4 (mogamulizumab), and (FIG. 5H) anti-PDL-1 (atezolizumab) co-incubated with PBMCs and MoT cells (1:½ ratio)."}}, "note": "Entries after “also recorded” stand apart in the source; their conditions may differ."}
{"substance": "atezolizumab", "values": [{"measurement": "reversal of MoT cell-mediated suppression of CD4+ PBMC proliferation", "setting": "[1]", "value": "None of the checkpoint inhibitor Mabs including anti-GITR reversed MoT cell-mediated suppression; also recorded: did not reverse suppression"}, {"measurement": "reversal of MoT cell-mediated suppression of CD4+ PBMC proliferation", "setting": "[1]; listed as anti-PD-L1", "value": "did not attenuate MoT Treg suppressive activity"}, {"measurement": "suppression or inhibition of CD4+ PBMC proliferation by the Mab alone", "setting": "[2]", "value": "do not suppress or inhibit"}]}
